Details of experiment [1]: method as in PMID 22488789. To be noted: cited from earlier work.
The format of experiment [2] is binding. To be noted: pH 8.

As to cholera toxin B-subunit [Wild-type], in experiment [1], the “Lewis-y glycan binding (result in words)” value is “very low affinity”. This substance showed a Kd in experiment [2] of 43 ± 8 nM.

The values above are taken from article PMC10974167 (Toxins, 2024).
